Measurements from US8252846B2, “Strategies for delivery of active agents using micelles and particles” (priority 2005, dated 2012).

How the values were obtained:
[1] = test system: serum nucleases; assay: Protection of ISS-DNA from serum nucleases (gel electrophoresis); format: in vitro ADME; conditions: 10% serum, 12 hours
Procedure: The stimuli responsive release of peptides from the PCMs due to the presence of GSH was investigated to determine if the PCMs will release peptide antigens after phagocytosis. The PCMs were incubated with different concentrations of GSH, for 24 hours in 50 mM pH 7.4 PBS buffer, and then analyzed by HPLC to determine the release of peptides. […] Incubation of the PCMs with 10 mM GSH (intracellular levels) induces the release of 71% of peptide, whereas incubation of the PCMs with just buffer causes the release of only 10% of peptides. B. GSH sensitive DNA release. The ability of the PCMs to protect encapsulated ISS-DNA from degradation by serum nucleases was investigated. PCMs were synthesized (as described above) and incubated with 10% serum for 12 hours, these PCMs were then examined by gel electrophoresis to determine the stability of the encapsulated ISS-DNA. As a control, ISS-DNA by itself was incubated with serum. […] C. […] A key advantage of the PCM strategy is that it generates a crosslinked delivery system. This crosslinking should stabilize the PCMs in vivo. The stability of the PCMs to decomposition was investigated by mixing the negatively charged polymer, poly(vinyl sulfate) (PVS) with the PCMs, this mixture was then analyzed by gel electrophoresis to determine the quantity of ISS-DNA displaced by the PVS. […]

[2] = cited from earlier work
[3] = Hydrolysis of polyketal copolymers in buffered water (1H NMR); format: physicochemical; conditions: buffer
Procedure: The molecular weight of the polyketal copolymers was determined by gel permeation chromatography (GPC) using a Shimadzu system (Kyoto, Japan) equipped with a UV detector. THF was used as the mobile phase at a flow rate of 1 mL/min. Polystyrene standards (Peak Mw=1060, 2970, and 10680) from Polymer Laboratories (Amherst, Mass.) were used to establish a molecular weight calibration curve. The hydrolysis of the polyketal copolymers was measured in buffered water at pH values of 1.0 (0.1M HCL), 4.5 (100 mM AcOH) and 7.4 (100 mM) at 37° C. Briefly, 20 mg of the polymer samples were placed in a 5 ml vial, 1 mL of buffer solution was added to each vial, and mixed with a magnetic stir bar. At specific time points, 1 mL of CDCl3 was added to each vial and shaken vigorously, the CDCl3 phase was isolated and analyzed by ^1H NMR, to determine the percent hydrolysis the of ketal linkages in polyketal copolymer.

For 5-TCCATGACGTTCCTGACGTT-3 [ISS-DNA], the “Stability of ISS-DNA to serum nucleases” value [1] was “completely hydrolyzed”.

In the case of OCC1CCC(CO)CC1 (stereo not drawn) [1,4-cyclohexanedimethanol], the “Log P of diol” value [2] is listed as 1.46.

For OCCCCCCCCO [1,8-octanediol], the “Log P of diol” value [2] is given as 1.75.

With “poly(cyclohexane-1,4-diyl acetone dimethylene ketal-co-1,5-pentane-acetone dimethylene ketal [PK3]” the “Estimated half life at pH 7.4” value ([3]; pH 7.4) was 39 days and the “Hydrolysis half life at pH 7.4 (in words)” value ([3]; pH 7.4) was “several weeks”.

With “poly(cyclohexane-1,4-diyl acetone dimethylene ketal-co-1,6-hexane-acetone dimethylene ketal) [PK5]” the “Half life at pH 4.5” value [3] was 4.4 days and the “Estimated half life at pH 7.4” value ([3]; pH 7.4) was 53 days.

With “poly(cyclohexane-1,4-diyl acetone dimethylene ketal-co-1,8-octane-acetone dimethylene ketal) [PK6]” the “Half life at pH 4.5” value [3] was 18.6 days and the “Estimated half life at pH 7.4” value ([3]; pH 7.4) was 360 days.
